Here are results for 3 molecules from ChEMBL document CHEMBL1201862, “PubChem BioAssay data set” (2004).

Active and inactive are the calls of the source.

Assay [1] in a line: cells. The format is functional, cell-based.
Assay [2] has as its target ATP-dependent molecular chaperone HSP82 (Candida albicans (strain WO-1) (Yeast), UniProt C4YTQ8). The assay is described as follows: steroid-induced GRE reporter decrease in yeast – S. cerevisiae, luminescence, Hsp90 inhibitor project, dose response (AID 2400).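 Further: beta-galactosidase luminescence from glucocorticoid response element reporter as proxy for Hsp90 function; inhibitor potency where signal loss means Hsp90 inhibition.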 The assay is classed as functional, cell-based.
Assay [3] is described as follows: cells. The assay is classed as functional, cell-based. The source holds these as a separate data set.
In assay [4] the target is Protein disulfide-isomerase A6 (Homo sapiens, UniProt Q15084). The assay is described as follows: reduced insulin turbidity driven by ERp5 (PDIA6) – biochemical, absorbance 650 nm, cherry-picked samples, dose response (AID 720566).
Another assay concerns the target T1, Caspase-9 (Homo sapiens, UniProt P55211).
T1 sequence (P55211 whole entry): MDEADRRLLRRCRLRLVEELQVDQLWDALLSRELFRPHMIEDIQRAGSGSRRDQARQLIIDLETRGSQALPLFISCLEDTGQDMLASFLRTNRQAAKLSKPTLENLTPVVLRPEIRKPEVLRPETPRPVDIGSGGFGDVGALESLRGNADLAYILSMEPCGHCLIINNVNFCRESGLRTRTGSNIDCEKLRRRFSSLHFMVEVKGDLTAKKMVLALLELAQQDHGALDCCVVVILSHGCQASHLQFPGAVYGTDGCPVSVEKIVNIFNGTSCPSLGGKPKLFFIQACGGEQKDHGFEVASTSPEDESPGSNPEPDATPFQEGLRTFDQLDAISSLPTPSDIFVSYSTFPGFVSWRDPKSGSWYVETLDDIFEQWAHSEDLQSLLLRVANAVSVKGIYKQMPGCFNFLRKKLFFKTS
Description: inhibitors of purified CASP9 protease – biochemical, fluorescence, plate reader, cherry-picked samples, selectivity assay for caspase-6 inhibitor project, dose response (AID 743293).

The target in a further assay is Cytochrome P450 3A4 (Homo sapiens, UniProt P08684).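 Further: CYP3A4 tested as one member of a cytochrome P450 panel screen.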
Assay [5] is described as follows: general mammalian cell viability loss – inhibitor set, cherry-pick, set 2, cytotoxicity control for miR-122 modulator project, dose response (AID 720697). The assay is classed as functional, cell-based.
Assay [6] can be described thus: blockers of HIV-1 ZM109 envelope-driven cell-cell fusion – HeLa effector, CEM target cells, luciferase, cherry-pick, dose response (AID 652058).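 Further: luciferase signal from HIV-1 Env mediated cell-cell fusion of effector and target cells.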 The assay is classed as functional, cell-based.

Sequence of Protein disulfide-isomerase A6 (Q15084 whole entry): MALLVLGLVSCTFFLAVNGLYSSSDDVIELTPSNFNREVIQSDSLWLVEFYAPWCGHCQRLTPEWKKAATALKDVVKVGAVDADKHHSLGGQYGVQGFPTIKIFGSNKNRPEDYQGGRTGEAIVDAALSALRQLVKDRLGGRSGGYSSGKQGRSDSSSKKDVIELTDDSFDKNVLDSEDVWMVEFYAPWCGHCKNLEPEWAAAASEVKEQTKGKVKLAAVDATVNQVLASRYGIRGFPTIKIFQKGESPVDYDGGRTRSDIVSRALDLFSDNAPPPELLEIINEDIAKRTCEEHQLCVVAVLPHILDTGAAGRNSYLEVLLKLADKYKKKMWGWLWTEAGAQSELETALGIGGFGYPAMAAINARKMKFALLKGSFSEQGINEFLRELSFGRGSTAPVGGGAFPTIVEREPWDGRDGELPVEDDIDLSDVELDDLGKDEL
Sequence of ATP-dependent molecular chaperone HSP82 (C4YTQ8 whole entry): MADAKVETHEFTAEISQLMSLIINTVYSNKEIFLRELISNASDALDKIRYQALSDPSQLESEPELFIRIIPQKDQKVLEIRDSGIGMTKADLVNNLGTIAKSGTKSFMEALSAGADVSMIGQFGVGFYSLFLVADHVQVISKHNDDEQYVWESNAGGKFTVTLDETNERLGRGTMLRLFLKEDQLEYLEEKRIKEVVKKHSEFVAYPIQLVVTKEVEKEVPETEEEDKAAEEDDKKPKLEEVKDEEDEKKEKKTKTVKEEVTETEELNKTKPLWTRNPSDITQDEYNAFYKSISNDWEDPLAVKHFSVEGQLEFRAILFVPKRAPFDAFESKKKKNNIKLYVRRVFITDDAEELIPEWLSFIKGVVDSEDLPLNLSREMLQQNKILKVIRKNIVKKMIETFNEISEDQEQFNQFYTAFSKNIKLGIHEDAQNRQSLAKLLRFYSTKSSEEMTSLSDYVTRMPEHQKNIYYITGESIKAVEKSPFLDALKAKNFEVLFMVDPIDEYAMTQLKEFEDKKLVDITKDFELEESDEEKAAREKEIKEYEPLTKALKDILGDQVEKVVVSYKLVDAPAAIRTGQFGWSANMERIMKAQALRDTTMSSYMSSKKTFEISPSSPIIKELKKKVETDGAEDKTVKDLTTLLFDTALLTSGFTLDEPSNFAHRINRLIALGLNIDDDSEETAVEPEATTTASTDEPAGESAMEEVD
Sequence of Cytochrome P450 3A4 (P08684 whole entry): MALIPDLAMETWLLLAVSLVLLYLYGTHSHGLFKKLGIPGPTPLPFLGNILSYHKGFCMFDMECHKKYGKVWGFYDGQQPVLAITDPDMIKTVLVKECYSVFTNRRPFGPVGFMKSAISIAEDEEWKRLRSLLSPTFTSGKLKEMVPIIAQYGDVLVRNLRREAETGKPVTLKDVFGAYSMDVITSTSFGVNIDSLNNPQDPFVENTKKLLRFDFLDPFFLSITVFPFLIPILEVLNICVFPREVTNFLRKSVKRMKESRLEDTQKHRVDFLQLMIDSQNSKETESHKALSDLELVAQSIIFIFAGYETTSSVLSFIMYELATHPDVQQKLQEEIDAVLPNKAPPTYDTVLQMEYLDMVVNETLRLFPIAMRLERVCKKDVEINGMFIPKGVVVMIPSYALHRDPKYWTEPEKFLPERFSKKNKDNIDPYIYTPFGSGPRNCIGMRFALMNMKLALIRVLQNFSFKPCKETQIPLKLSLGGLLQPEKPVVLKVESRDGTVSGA

By EC50 is commonly meant the concentration that produces a half-maximal response. `CCC(=O)NC(c1ccc(OC)cc1)c1cc(Cl)c2cccnc2c1O` (stereo not drawn): the EC50 in “cells [1]” is 19 µM (active); in assay [2], > 160 µM (inactive); in “cells [3]”, > 350 µM (not active).
The AC50 is the midpoint of the concentration-response curve, whichever way the signal moves. On to `Cn1nc(-c2ccccn2)nc2c(=O)n(C)c(=O)nc1-2`, for which the AC50 in assay [4] was 1.49 µM (active); on Caspase-9, 0.317 µM (active).
For the molecule `CCCCCCCCCCn1c2c(c(=N)c3c1CCC3)CCC2`, the AC50 at Cytochrome P450 3A4 is 31.6 µM (inconclusive); in assay [5], 1.8 µM (active); in assay [6], 1.7 µM (active).
